{"source": "paper PMC10066365", "about": "“Nemacol is a small molecule inhibitor of C. elegans vesicular acetylcholine transporter with anthelmintic potential” (Nature Communications, 2023)", "key": {"C. elegans DA1316": {"tested_on": "C. elegans DA1316", "test": "C. elegans 3-day liquid viability assay, DA1316 avr-14; avr-15; […]", "type": "in vivo, Caenorhabditis elegans", "settings": "for total animals normalized to corresponding controls: DA1316"}, "[1]": {"tested_on": "C. elegans unc-17 mutants", "settings": "unc-17 (e245), 60 min"}, "[2]": {"settings": "15 µM, adult worms, average of 3 biological repeats"}, "[3]": {"settings": "30 µM, adult worms, average of 3 biological repeats"}, "[4]": {"settings": "60 µM, adult worms, average of 3 biological repeats"}}, "note": "Several values for one entry are separate records, joined by “and”; a condition that tells them apart may be missing. Equal entries are not always repeated. Where two headings read alike, the source gives them in different places.", "data": [{"smiles": "O=[N+]([O-])c1ccc(N2CCN(CC3CCCCC3)CC2)cc1", "note": "[Nemacol-1]", "values": [{"measurement": "total animals normalized to corresponding controls", "setting": "C. elegans DA1316; ivermectin 0 uM + nemacol-1 5.72205e-5", "result": 117.10}, {"measurement": "total animals normalized to corresponding controls", "setting": "C. elegans DA1316; ivermectin 0 uM + nemacol-1 0.0146484", "result": 91.26}, {"measurement": "total animals normalized to corresponding controls", "setting": "C. elegans DA1316; ivermectin 0 uM + nemacol-1 3.75", "result": 106.04}, {"measurement": "total animals normalized to corresponding controls", "setting": "C. elegans DA1316; ivermectin 0 uM + nemacol-1 7.5", "result": 111.01}, {"measurement": "total animals normalized to corresponding controls", "setting": "C. elegans DA1316; ivermectin 0 uM + nemacol-1 15", "result": 100.31}, {"measurement": "total animals normalized to corresponding controls", "setting": "C. elegans DA1316; ivermectin 0 uM + nemacol-1 30", "result": 100.23}, {"measurement": "total animals normalized to corresponding controls", "setting": "C. elegans DA1316; ivermectin 0 uM + nemacol-1 60", "result": 99.19}, {"measurement": "total animals normalized to corresponding controls", "setting": "C. elegans DA1316; ivermectin 0.0009375 uM + nemacol-1 0.000114441", "result": 112.95}, {"measurement": "total animals normalized to corresponding controls", "setting": "C. elegans DA1316; ivermectin 0.0009375 uM + nemacol-1 0.0292969", "result": 124.80}, {"measurement": "total animals normalized to corresponding controls", "setting": "C. elegans DA1316; ivermectin 0.0009375 uM + nemacol-1 3.75", "result": 113.26}, {"measurement": "total animals normalized to corresponding controls", "setting": "C. elegans DA1316; ivermectin 0.0009375 uM + nemacol-1 7.5", "result": 122.67}, {"measurement": "total animals normalized to corresponding controls", "setting": "C. elegans DA1316; ivermectin 0.0009375 uM + nemacol-1 15", "result": 99.45}, {"measurement": "total animals normalized to corresponding controls", "setting": "C. elegans DA1316; ivermectin 0.0009375 uM + nemacol-1 30", "result": 96.12}, {"measurement": "total animals normalized to corresponding controls", "setting": "C. elegans DA1316; ivermectin 0.0009375 uM + nemacol-1 60", "result": 95.59}, {"measurement": "total animals normalized to corresponding controls", "setting": "C. elegans DA1316; ivermectin 0.001875 uM + nemacol-1 0.000228882", "result": 117.74}, {"measurement": "total animals normalized to corresponding controls", "setting": "C. elegans DA1316; ivermectin 0.001875 uM + nemacol-1 0.0585938", "result": 95.40}, {"measurement": "total animals normalized to corresponding controls", "setting": "C. elegans DA1316; ivermectin 0.001875 uM + nemacol-1 3.75", "result": 107.81}, {"measurement": "total animals normalized to corresponding controls", "setting": "C. elegans DA1316; ivermectin 0.001875 uM + nemacol-1 7.5", "result": 110.79}, {"measurement": "total animals normalized to corresponding controls", "setting": "C. elegans DA1316; ivermectin 0.001875 uM + nemacol-1 15", "result": 103.40}, {"measurement": "total animals normalized to corresponding controls", "setting": "C. elegans DA1316; ivermectin 0.001875 uM + nemacol-1 30", "result": 87.76}, {"measurement": "total animals normalized to corresponding controls", "setting": "C. elegans DA1316; ivermectin 0.001875 uM + nemacol-1 60", "result": 95.73}, {"measurement": "total animals normalized to corresponding controls", "setting": "C. elegans DA1316; ivermectin 0.00375 uM + nemacol-1 0.000457764", "result": 105.05}, {"measurement": "total animals normalized to corresponding controls", "setting": "C. elegans DA1316; ivermectin 0.00375 uM + nemacol-1 0.117188", "result": 110.64}, {"measurement": "total animals normalized to corresponding controls", "setting": "C. elegans DA1316; ivermectin 0.00375 uM + nemacol-1 3.75", "result": 115.16}, {"measurement": "total animals normalized to corresponding controls", "setting": "C. elegans DA1316; ivermectin 0.00375 uM + nemacol-1 7.5", "result": 104.58}, {"measurement": "total animals normalized to corresponding controls", "setting": "C. elegans DA1316; ivermectin 0.00375 uM + nemacol-1 15", "result": 92.41}, {"measurement": "total animals normalized to corresponding controls", "setting": "C. elegans DA1316; ivermectin 0.00375 uM + nemacol-1 30", "result": 95.26}, {"measurement": "total animals normalized to corresponding controls", "setting": "C. elegans DA1316; ivermectin 0.00375 uM + nemacol-1 60", "result": 95.05}, {"measurement": "total animals normalized to corresponding controls", "setting": "C. elegans DA1316; ivermectin 0.03 uM + nemacol-1 0.00366211", "result": 117.10}, {"measurement": "total animals normalized to corresponding controls", "setting": "C. elegans DA1316; ivermectin 0.03 uM + nemacol-1 0.9375", "result": 95.99}, {"measurement": "total animals normalized to corresponding controls", "setting": "C. elegans DA1316; ivermectin 0.03 uM + nemacol-1 3.75", "result": 106.91}, {"measurement": "total animals normalized to corresponding controls", "setting": "C. elegans DA1316; ivermectin 0.03 uM + nemacol-1 7.5", "result": 93.50}, {"measurement": "total animals normalized to corresponding controls", "setting": "C. elegans DA1316; ivermectin 0.03 uM + nemacol-1 15", "result": 78.16}, {"measurement": "total animals normalized to corresponding controls", "setting": "C. elegans DA1316; ivermectin 0.03 uM + nemacol-1 30", "result": 62.13}, {"measurement": "total animals normalized to corresponding controls", "setting": "C. elegans DA1316; ivermectin 0.03 uM + nemacol-1 60", "result": 54.19}, {"measurement": "total animals normalized to corresponding controls", "setting": "C. elegans DA1316; ivermectin 0.06 uM + nemacol-1 0.00732422", "result": 74.90}, {"measurement": "total animals normalized to corresponding controls", "setting": "C. elegans DA1316; ivermectin 0.06 uM + nemacol-1 1.875", "result": 82.85}, {"measurement": "total animals normalized to corresponding controls", "setting": "C. elegans DA1316; ivermectin 0.06 uM + nemacol-1 3.75", "result": 87.36}, {"measurement": "total animals normalized to corresponding controls", "setting": "C. elegans DA1316; ivermectin 0.06 uM + nemacol-1 7.5", "result": 84.34}, {"measurement": "total animals normalized to corresponding controls", "setting": "C. elegans DA1316; ivermectin 0.06 uM + nemacol-1 15", "result": 45.86}, {"measurement": "total animals normalized to corresponding controls", "setting": "C. elegans DA1316; ivermectin 0.06 uM + nemacol-1 30", "result": 52.87}, {"measurement": "total animals normalized to corresponding controls", "setting": "C. elegans DA1316; ivermectin 0.06 uM + nemacol-1 60", "result": 31.96}, {"measurement": "synergy with Ivermectin in triple mutant compared to wild type", "setting": "C. elegans DA1316; avr-14, avr-15, glc-1 triple mutant", "result": 0.6, "unit": "fold"}, {"measurement": "Fraction Coiled", "setting": "[1]; [2]", "result": 0.83}, {"measurement": "Fraction Jerky-Unc", "setting": "[1]; [2]", "result": 0.17}, {"measurement": "Fraction No Phenotype", "setting": "[1]; [2]", "result": 0.00}, {"measurement": "Fraction Parayzed", "setting": "[1]; [2]", "result": 0.00}, {"measurement": "Fraction Coiled", "setting": "[1]; [3]", "result": 0.78}, {"measurement": "Fraction Jerky-Unc", "setting": "[1]; [3]", "result": 0.13}, {"measurement": "Fraction No Phenotype", "setting": "[1]; [3]", "result": 0.00}, {"measurement": "Fraction Parayzed", "setting": "[1]; [3]", "result": 0.09}, {"measurement": "Fraction Coiled", "setting": "[1]; [4]", "result": 0.80}, {"measurement": "Fraction Jerky-Unc", "setting": "[1]; [4]", "result": 0.0556}, {"measurement": "Fraction No Phenotype", "setting": "[1]; [4]", "result": 0.00}, {"measurement": "Fraction Parayzed", "setting": "[1]; [4]", "result": 0.15}, {"measurement": "Fraction Coiled, Averages of 3 biological repeats", "setting": "[1]; 15 µM", "result": 0.78}, {"measurement": "Fraction Jerky-Unc, Averages of 3 biological repeats", "setting": "[1]; 15 µM", "result": 0.19}, {"measurement": "Fraction No Phenotype, Averages of 3 biological repeats", "setting": "[1]; 15 µM", "result": 0.00}, {"measurement": "Fraction Parayzed, Averages of 3 biological repeats", "setting": "[1]; 15 µM", "result": 0.037}, {"measurement": "C1 (loose coil) worm count", "setting": "[1]; 15 µM, single Bio Rep", "result": "4 and 2 and 3"}, {"measurement": "C2 (tight coil) worm count", "setting": "[1]; 15 µM, single Bio Rep", "result": "11 and 12 and 10"}, {"measurement": "Fraction Coiled", "setting": "[1]; 15 µM, single Bio Rep", "result": "0.72 and 0.83 and 0.78"}, {"measurement": "Fraction Jerky-Unc", "setting": "[1]; 15 µM, single Bio Rep", "result": "0.1667 and 0.2222"}, {"measurement": "Fraction No Phenotype", "setting": "[1]; 15 µM, single Bio Rep", "result": 0.00}, {"measurement": "J (jerky-unc) worm count", "setting": "[1]; 15 µM, single Bio Rep", "result": "3 and 4"}, {"measurement": "NP (no phene) worm count", "setting": "[1]; 15 µM, single Bio Rep", "result": 0}, {"measurement": "Fraction Coiled, Averages of 3 biological repeats", "setting": "[1]; 30 µM", "result": 0.87}, {"measurement": "Fraction Jerky-Unc, Averages of 3 biological repeats", "setting": "[1]; 30 µM", "result": 0.0741}, {"measurement": "Fraction No Phenotype, Averages of 3 biological repeats", "setting": "[1]; 30 µM", "result": 0.00}, {"measurement": "Fraction Parayzed, Averages of 3 biological repeats", "setting": "[1]; 30 µM", "result": 0.0556}, {"measurement": "C1 (loose coil) worm count", "setting": "[1]; 30 µM, single Bio Rep", "result": "2 and 1"}, {"measurement": "C2 (tight coil) worm count", "setting": "[1]; 30 µM, single Bio Rep", "result": "14 and 15 and 13"}, {"measurement": "Fraction Coiled", "setting": "[1]; 30 µM, single Bio Rep", "result": "0.83 and 0.89"}, {"measurement": "Fraction No Phenotype", "setting": "[1]; 30 µM, single Bio Rep", "result": 0.00}, {"measurement": "NP (no phene) worm count", "setting": "[1]; 30 µM, single Bio Rep", "result": 0}, {"measurement": "Fraction Coiled, Averages of 3 biological repeats", "setting": "[1]; 60 µM", "result": 0.76}, {"measurement": "Fraction Jerky-Unc, Averages of 3 biological repeats", "setting": "[1]; 60 µM", "result": 0.037}, {"measurement": "Fraction No Phenotype, Averages of 3 biological repeats", "setting": "[1]; 60 µM", "result": 0.00}, {"measurement": "Fraction Parayzed, Averages of 3 biological repeats", "setting": "[1]; 60 µM", "result": 0.20}, {"measurement": "C1 (loose coil) worm count", "setting": "[1]; 60 µM, single Bio Rep", "result": "4 and 2"}, {"measurement": "C2 (tight coil) worm count", "setting": "[1]; 60 µM, single Bio Rep", "result": "12 and 8 and 11"}, {"measurement": "Fraction Coiled", "setting": "[1]; 60 µM, single Bio Rep", "result": "0.83 and 0.89 and 0.56"}, {"measurement": "Fraction No Phenotype", "setting": "[1]; 60 µM, single Bio Rep", "result": 0.00}, {"measurement": "NP (no phene) worm count", "setting": "[1]; 60 µM, single Bio Rep", "result": 0}]}]}
